Data reported in US10670605B2, “Cysteine reactive probes and uses thereof” (The Scripps Research Institute, priority 2015, dated 2020).

Experiments:
Experiment in all cases: Competitive isoTOP-ABPP in situ (fragment-treated cells)
Assay type in all cases: cell-based
[1] = biological target: T1, cysteines in MDA-MB-231 and Ramos cells (Homo sapiens, UniProt P10599)
T1 sequence (P10599 1-105): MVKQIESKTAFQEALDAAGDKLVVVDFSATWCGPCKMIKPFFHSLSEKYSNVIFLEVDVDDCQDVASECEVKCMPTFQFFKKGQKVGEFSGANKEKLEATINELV

[2] = biological target: cysteines in MDA-MB-231 and Ramos cells (Homo sapiens, UniProt P12268)
[3] = biological target: T2, cysteines in MDA-MB-231 and Ramos cells (Homo sapiens, UniProt P35611)
T2 sequence (P35611 1-737): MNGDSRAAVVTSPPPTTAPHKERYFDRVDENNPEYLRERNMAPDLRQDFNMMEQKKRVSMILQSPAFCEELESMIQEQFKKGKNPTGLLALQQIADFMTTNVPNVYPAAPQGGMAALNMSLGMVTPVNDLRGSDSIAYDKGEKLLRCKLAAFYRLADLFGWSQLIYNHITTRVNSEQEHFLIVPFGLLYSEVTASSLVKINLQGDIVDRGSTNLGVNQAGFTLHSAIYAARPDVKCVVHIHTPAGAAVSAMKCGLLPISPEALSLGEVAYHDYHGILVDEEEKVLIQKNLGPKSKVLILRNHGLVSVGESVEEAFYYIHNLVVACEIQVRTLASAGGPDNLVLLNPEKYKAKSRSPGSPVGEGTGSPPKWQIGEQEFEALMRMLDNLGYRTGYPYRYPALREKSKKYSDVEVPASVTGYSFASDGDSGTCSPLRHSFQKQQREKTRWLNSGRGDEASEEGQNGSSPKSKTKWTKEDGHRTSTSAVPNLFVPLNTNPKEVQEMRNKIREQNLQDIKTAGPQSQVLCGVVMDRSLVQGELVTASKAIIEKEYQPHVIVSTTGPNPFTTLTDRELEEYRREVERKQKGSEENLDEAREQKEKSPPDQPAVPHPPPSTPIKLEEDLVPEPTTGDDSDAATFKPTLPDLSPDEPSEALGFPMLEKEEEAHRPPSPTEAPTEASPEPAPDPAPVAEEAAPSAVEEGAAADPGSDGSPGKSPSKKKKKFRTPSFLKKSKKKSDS

[4] = biological target: T3, cysteines in MDA-MB-231 and Ramos cells (Homo sapiens, UniProt Q13428)
T3 sequence (Q13428 1-1488): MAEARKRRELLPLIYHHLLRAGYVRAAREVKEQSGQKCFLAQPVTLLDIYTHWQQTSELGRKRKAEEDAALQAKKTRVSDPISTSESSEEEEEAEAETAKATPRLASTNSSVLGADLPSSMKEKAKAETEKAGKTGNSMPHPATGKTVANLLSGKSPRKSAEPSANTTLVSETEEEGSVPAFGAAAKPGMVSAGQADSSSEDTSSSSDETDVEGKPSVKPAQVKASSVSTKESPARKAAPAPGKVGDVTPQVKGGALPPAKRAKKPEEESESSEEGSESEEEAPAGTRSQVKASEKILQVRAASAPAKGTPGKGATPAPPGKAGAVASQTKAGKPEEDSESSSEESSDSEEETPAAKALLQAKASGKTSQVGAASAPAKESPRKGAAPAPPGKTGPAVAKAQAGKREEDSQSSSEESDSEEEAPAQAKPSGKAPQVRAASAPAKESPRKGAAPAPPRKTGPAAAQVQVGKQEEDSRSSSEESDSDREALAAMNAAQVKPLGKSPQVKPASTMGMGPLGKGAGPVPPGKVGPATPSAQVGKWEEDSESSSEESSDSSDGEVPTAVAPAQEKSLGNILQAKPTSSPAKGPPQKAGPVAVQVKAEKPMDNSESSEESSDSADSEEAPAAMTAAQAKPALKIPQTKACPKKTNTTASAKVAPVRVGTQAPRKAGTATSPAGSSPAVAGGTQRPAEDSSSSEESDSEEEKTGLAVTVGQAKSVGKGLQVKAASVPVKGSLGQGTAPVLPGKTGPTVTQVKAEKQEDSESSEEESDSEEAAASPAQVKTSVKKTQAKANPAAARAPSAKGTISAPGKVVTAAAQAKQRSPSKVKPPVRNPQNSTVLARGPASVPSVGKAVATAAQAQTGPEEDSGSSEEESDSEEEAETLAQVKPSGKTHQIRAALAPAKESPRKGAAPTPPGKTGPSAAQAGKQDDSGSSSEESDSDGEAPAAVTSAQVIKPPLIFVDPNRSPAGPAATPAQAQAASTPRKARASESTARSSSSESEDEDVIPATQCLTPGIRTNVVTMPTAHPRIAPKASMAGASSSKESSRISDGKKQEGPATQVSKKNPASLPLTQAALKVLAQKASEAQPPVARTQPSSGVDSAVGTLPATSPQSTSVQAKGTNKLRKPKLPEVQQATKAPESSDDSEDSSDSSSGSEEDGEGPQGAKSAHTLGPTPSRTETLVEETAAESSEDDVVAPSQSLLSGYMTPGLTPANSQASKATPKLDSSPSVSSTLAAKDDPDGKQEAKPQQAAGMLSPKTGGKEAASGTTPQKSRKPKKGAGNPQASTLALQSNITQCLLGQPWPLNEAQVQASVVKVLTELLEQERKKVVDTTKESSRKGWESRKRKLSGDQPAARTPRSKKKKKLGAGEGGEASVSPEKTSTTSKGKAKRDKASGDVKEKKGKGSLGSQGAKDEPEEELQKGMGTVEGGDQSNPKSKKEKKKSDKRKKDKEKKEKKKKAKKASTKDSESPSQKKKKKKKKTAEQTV

[5] = biological target: cysteines in MDA-MB-231 and Ramos cells (Homo sapiens, UniProt Q8TAQ2)
[6] = biological target: cysteines in MDA-MB-231 and Ramos cells (Homo sapiens, UniProt Q9NUY8)
Sequence of cysteines in MDA-MB-231 and Ramos cells (Homo sapiens, UniProt Q9NUY8) (Q9NUY8 whole entry): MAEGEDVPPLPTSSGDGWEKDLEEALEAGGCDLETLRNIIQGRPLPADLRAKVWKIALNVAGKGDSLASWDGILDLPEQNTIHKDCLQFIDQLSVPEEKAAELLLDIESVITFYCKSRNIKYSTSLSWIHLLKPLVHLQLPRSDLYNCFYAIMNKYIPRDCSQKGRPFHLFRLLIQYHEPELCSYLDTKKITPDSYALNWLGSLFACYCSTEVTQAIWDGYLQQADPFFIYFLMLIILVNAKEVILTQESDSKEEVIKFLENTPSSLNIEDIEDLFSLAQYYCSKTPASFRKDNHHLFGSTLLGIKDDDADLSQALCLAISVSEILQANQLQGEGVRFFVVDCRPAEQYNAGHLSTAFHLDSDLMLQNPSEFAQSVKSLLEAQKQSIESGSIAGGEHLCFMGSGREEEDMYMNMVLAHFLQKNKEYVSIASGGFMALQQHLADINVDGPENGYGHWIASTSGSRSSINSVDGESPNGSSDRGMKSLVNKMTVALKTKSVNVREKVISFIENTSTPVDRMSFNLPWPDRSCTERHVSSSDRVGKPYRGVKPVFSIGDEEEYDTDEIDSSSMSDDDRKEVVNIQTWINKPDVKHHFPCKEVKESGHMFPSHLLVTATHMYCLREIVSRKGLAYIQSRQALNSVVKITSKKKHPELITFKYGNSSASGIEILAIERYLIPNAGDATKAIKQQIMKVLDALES

Sequence of cysteines in MDA-MB-231 and Ramos cells (Homo sapiens, UniProt Q8TAQ2) (Q8TAQ2 whole entry): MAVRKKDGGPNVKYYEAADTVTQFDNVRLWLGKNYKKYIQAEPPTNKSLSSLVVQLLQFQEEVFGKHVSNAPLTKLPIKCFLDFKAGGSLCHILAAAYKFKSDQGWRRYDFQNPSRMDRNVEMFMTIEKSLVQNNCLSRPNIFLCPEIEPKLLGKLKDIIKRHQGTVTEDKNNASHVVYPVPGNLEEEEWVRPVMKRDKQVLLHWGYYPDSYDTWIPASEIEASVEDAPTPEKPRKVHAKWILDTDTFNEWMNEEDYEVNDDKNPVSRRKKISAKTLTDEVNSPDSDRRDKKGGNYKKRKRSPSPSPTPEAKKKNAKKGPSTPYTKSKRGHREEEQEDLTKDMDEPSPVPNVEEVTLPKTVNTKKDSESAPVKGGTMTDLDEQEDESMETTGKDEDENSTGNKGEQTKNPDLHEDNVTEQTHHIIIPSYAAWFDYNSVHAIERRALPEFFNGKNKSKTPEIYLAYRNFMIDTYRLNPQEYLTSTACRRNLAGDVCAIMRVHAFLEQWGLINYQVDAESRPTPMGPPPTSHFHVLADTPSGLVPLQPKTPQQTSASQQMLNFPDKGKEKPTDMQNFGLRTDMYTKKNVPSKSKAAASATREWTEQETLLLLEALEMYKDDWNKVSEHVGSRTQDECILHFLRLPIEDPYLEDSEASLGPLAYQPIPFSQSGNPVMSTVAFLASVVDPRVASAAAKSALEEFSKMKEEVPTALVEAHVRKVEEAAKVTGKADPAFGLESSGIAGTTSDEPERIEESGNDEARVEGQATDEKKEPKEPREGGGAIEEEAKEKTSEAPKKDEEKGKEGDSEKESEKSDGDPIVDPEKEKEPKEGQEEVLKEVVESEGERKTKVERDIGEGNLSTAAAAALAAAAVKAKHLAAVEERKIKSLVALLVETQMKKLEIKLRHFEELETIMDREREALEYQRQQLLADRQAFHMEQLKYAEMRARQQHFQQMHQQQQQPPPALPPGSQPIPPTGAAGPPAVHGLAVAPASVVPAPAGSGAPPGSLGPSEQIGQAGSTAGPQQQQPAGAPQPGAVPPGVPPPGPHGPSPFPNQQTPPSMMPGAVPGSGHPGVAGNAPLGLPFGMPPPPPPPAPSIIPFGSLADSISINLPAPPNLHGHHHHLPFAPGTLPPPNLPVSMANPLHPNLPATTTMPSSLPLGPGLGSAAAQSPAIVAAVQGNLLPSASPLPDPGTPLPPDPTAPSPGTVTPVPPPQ

SMILES: COc1ccc2c(c1)CCCN2C(=O)CCl [compound 2]
- isoTOP-ABPP reactivity P10599_C32 TXN ([1]; 200 μM, insitu, 231): 7.9
- isoTOP-ABPP reactivity P12268_C140 IMPDH2 ([2]; 200 μM, insitu, 231): 1.3
- isoTOP-ABPP reactivity P12268_C331 IMPDH2 ([2]; 200 μM, insitu, 231): 12.1
- isoTOP-ABPP reactivity P35611_C68 ADD1 ([3]; 200 μM, insitu, 231): 5.8
- isoTOP-ABPP reactivity Q13428_C38 TCOF1 ([4]; 200 μM, insitu, 231): 3.3
- isoTOP-ABPP reactivity Q13428_C1298 TCOF1 ([4]; 200 μM, insitu, 231): 4.7
- isoTOP-ABPP reactivity Q8TAQ2_C145 SMARCC2 ([5]; 200 μM, insitu, 231): 4.6
- isoTOP-ABPP reactivity Q9NUY8_C283 TBC1D23 ([6]; 200 μM, insitu, 231): 4.1

SMILES: COc1ccc(C2CC(c3cccs3)=NN2C(=O)CCl)cc1 (centres unmarked) [compound 4]
- isoTOP-ABPP reactivity P10599_C32 TXN ([1]; 100 μM in situ 231): 3.3
- isoTOP-ABPP reactivity P12268_C140 IMPDH2 ([2]; 100 μM in situ 231): 1.0
- isoTOP-ABPP reactivity P12268_C331 IMPDH2 ([2]; 100 μM in situ 231): 4.6
- isoTOP-ABPP reactivity P35611_C68 ADD1 ([3]; 100 μM in situ 231): 4.3
- isoTOP-ABPP reactivity Q13428_C38 TCOF1 ([4]; 100 μM in situ 231): 2.8
- isoTOP-ABPP reactivity Q13428_C1298 TCOF1 ([4]; 100 μM in situ 231): 5.6
- isoTOP-ABPP reactivity Q8TAQ2_C145 SMARCC2 ([5]; 100 μM in situ 231): 3.1
- isoTOP-ABPP reactivity Q9NUY8_C283 TBC1D23 ([6]; 100 μM in situ 231): 2.1

SMILES: COc1cc2c(cc1OC)CN(C(=O)CCl)CC2 [compound 8]
- isoTOP-ABPP reactivity P10599_C32 TXN ([1]; 200 μM, insitu, 231): 5.9
- isoTOP-ABPP reactivity P12268_C140 IMPDH2 ([2]; 200 μM, insitu, 231): 0.9
- isoTOP-ABPP reactivity P35611_C68 ADD1 ([3]; 200 μM, insitu, 231): 2.4
- isoTOP-ABPP reactivity Q13428_C38 TCOF1 ([4]; 200 μM, insitu, 231): 2.0
- isoTOP-ABPP reactivity Q13428_C1298 TCOF1 ([4]; 200 μM, insitu, 231): 20.0
- isoTOP-ABPP reactivity Q9NUY8_C283 TBC1D23 ([6]; 200 μM, insitu, 231): 4.9

SMILES: O=C(CCl)N1CCC(Cc2ccccc2)CC1 [compound 9]
- isoTOP-ABPP reactivity P10599_C32 TXN ([1]; 200 μM, insitu, 231): 20.0
- isoTOP-ABPP reactivity P12268_C140 IMPDH2 ([2]; 200 μM, insitu, 231): 1.2
- isoTOP-ABPP reactivity P12268_C331 IMPDH2 ([2]; 200 μM, insitu, 231): 1.3
- isoTOP-ABPP reactivity P35611_C68 ADD1 ([3]; 200 μM, insitu, 231): 4.3
- isoTOP-ABPP reactivity Q9NUY8_C283 TBC1D23 ([6]; 200 μM, insitu, 231): 2.1

SMILES: O=C(CCl)N1CCN(S(=O)(=O)c2ccccc2F)CC1 [compound 10]
- isoTOP-ABPP ratio P10599_C32 ([1]; 200 μM, insitu, 231): 3.8
- isoTOP-ABPP ratio P12268_C140 ([2]; 200 μM, insitu, 231): 0.7
- isoTOP-ABPP ratio P12268_C140 ([2]; 200 μM, insitu, ramos): 0.9
- isoTOP-ABPP ratio P12268_C331 ([2]; 200 μM, insitu, ramos): 2.1
- isoTOP-ABPP ratio P35611_C68 ([3]; 200 μM, insitu, 231): 1.9
- isoTOP-ABPP ratio Q13428_C38 ([4]; 200 μM, insitu, 231): 4.2
- isoTOP-ABPP ratio Q13428_C1298 ([4]; 200 μM, insitu, 231): 5.9
- isoTOP-ABPP ratio Q8TAQ2_C145 ([5]; 200 μM, insitu, ramos): 20.0
- isoTOP-ABPP ratio Q9NUY8_C283 ([6]; 200 μM, insitu, 231): 2.0

SMILES: Cn1cc(S(=O)(=O)N2CCOCC2)cc1C(=O)NC(=O)CCl [compound 11]
- isoTOP-ABPP ratio P10599_C32 ([1]; 100 μM in situ 231): 13.0
- isoTOP-ABPP ratio P12268_C140 ([2]; 100 μM in situ 231): 0.6
- isoTOP-ABPP ratio P12268_C331 ([2]; 100 μM in situ 231): 1.0
- isoTOP-ABPP ratio P35611_C68 ([3]; 100 μM in situ 231): 0.9
- isoTOP-ABPP ratio Q13428_C38 ([4]; 100 μM in situ 231): 1.1
- isoTOP-ABPP ratio Q13428_C1298 ([4]; 100 μM in situ 231): 0.8
- isoTOP-ABPP ratio Q8TAQ2_C145 ([5]; 100 μM in situ 231): 7.6
- isoTOP-ABPP ratio Q9NUY8_C283 ([6]; 100 μM in situ 231): 1.1
